Data on 7 compounds can be found in publication PMC9599461, “Stereoselectivity in the Membrane Transport of Phenylethylamine Derivatives by Human Monoamine Transporters and Organic Cation Transporters 1, 2, and 3” (Biomolecules, 2022).

Usually Km stands for the substrate concentration at which the rate is half of its maximum.

The structures appear in SMILES notation.

One data set addresses NET (Homo sapiens, UniProt P23975). Nature of the data set: Stereoselective uptake into NET-overexpressing HEK293 cells. To be noted: for Saturable net uptake: result in words.
The target of a further data set is T1, OCT2 (Homo sapiens, UniProt O15244).
T1 sequence (O15244 1-555 S270A): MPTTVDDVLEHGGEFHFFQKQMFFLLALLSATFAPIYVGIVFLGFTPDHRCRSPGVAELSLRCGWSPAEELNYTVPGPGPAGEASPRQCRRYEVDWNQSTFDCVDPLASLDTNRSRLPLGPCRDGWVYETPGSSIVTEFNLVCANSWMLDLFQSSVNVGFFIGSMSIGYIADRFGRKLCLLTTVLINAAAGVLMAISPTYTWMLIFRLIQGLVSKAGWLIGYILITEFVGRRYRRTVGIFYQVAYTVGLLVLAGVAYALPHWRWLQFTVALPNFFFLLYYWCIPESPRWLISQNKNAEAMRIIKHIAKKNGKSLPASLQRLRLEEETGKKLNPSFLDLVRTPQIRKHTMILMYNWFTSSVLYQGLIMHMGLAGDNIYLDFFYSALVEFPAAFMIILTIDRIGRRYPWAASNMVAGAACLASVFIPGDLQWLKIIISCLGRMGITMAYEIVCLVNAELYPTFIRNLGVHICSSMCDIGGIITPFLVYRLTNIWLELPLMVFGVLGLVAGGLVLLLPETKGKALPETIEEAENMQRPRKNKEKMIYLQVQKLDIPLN
Nature of the data set: Stereoselective uptake into OCT2 (wild-type)-overexpressing HEK293 cells. To be noted: for Clint ± SEM / selectivity ratio at 2 min: OCT2; for Clint ± SEM: quotient of vmax over Km; for selectivity ratio at 2 min: human, ratio between enantiomers.

In a further data set the target is T2, OCT1 (Homo sapiens, UniProt O15245).
T2 sequence (O15245 1-554): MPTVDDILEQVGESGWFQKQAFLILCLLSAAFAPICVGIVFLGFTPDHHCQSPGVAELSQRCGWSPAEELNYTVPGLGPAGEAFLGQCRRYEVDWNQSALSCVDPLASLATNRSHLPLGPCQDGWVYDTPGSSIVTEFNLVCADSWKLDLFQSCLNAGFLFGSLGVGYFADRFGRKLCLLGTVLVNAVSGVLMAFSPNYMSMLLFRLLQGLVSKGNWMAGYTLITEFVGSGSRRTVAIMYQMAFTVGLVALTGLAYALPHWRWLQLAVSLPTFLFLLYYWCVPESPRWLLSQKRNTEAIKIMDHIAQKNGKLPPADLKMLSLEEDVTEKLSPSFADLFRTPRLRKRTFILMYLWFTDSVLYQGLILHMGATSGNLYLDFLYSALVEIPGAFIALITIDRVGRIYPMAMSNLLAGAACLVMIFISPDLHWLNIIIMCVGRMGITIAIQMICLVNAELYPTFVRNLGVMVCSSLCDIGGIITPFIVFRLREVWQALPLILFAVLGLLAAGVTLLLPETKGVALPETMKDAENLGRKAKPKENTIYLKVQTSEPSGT
In words: Stereoselective uptake into OCT1-overexpressing HEK293 cells. To be noted: for Saturable net uptake: result in words.

In the next data set the target is DAT (Homo sapiens, UniProt Q01959). Nature of the data set: Stereoselective uptake into DAT-overexpressing HEK293 cells. The note with it: for Saturable net uptake: result in words.
Chain of DAT (Q01959 whole entry): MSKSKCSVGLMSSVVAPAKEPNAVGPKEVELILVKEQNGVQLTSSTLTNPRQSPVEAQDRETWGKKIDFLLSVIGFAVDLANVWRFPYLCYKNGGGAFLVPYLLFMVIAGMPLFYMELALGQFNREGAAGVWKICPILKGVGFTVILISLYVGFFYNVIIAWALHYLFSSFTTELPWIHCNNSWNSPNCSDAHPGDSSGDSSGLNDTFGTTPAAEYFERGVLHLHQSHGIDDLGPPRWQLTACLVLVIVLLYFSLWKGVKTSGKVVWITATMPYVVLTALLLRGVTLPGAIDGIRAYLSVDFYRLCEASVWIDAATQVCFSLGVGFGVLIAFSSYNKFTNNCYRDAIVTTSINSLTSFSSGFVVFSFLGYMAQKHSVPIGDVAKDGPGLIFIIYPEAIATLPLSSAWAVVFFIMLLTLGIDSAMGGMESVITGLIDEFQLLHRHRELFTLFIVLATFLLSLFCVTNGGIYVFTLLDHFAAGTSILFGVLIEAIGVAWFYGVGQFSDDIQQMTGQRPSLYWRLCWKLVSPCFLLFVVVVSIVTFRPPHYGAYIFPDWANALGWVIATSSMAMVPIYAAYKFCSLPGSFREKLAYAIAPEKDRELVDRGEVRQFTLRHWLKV
The next data set concerns the target SERT (Homo sapiens, UniProt P31645). Nature of the data set: Stereoselective uptake into SERT-overexpressing HEK293 cells. To be noted: SERT; result in words.
Data set [1] concerns OCT2 wild-type versus A270S variant. Nature of the data set: in vitro. To be noted: human, Transporter selectivity, OCT2 wild-type versus A270S, 100 μM racemic substance, two minutes.
Procedure: (§1) All transport experiments were carried out in HEK293 cells stably overexpressing human MATs or OCTs. […] All cells were regularly cultivated in DMEM supplemented with 10% (v/v) FCS, penicillin (100 U/mL) and streptomycin (100 μg/mL)and kept in culture for no longer than 30 passages.
(§2) For the uptake experiments, 300,000 cells were plated in poly-D-lysine precoated 24-well plates 48 h ahead of the transport experiment. On the day of experiment, cells were initially washed once with 37 °C pre-warmed HBSS+ (Hanks buffered salt solution supplemented with 10 mM HEPES) and subsequently incubated with the substrates dissolved in pre-warmed HBSS+ for exactly two minutes. Incubation was stopped by adding ice-cold HBSS+ followed by two washing steps. After this, cells were lysed with 80% acetonitrile containing 10 ng/mL milnacipran as internal standard for high-performance liquid chromatography coupled to tandem mass spectrometry (HPLC-MS/MS) analysis. For every experiment, two additional wells per cell line were lysed using RIPA buffer for protein quantification. Total protein was quantified using the bicinchoninic acid assay [42]. This was later used for normalization of the uptake data.
(§3) Intracellularly accumulated test substances were quantified by HPLC-MS/MS analysis using a Shimadzu Nexera HPLC system with a SIL-30AC autosampler, a CTO-20AC column oven, a LC-30AD pump, and a CBM-20A controller (Shimadzu, Kyoto, Japan). Stereoselective chromatography was carried out on a [sequence] CBH HPLC column (100 × 3 mm inner dimension with 5 μM particle size; Sigma-Aldrich, Darmstadt, Germany) with a corresponding 10 × 3 mm guard column. Reversed phased chromatography was carried out using an ammonium acetate (NH4Ac) buffered aqueous mobile phase with isopropyl alcohol (IPA) as organic solvent. […] The order of elution of the enantiomers was obtained from available reference literature [43] or by applying enantiopure reference compounds to the chiral HPLC. […] However, in every other case where the order of elution was available, the (R)-enantiomer eluted first. Given the structural similarity of the investigated substances and the fact that separation was performed on the same column with almost identical mobile phases, we assume that this order of elution for our compound set is always the (R)- before the (S)-enantiomer.
(§4) Detection was performed with an API 4000 tandem mass spectrometer (AB SCIEX, Darmstadt, Germany) operating in multiple-reaction-monitoring mode. Quantification was performed using the Analyst 1.6.2 software (AB SCIEX, Darmstadt, Germany) and quantified by comparison to standard curves with known concentrations.
(§5) All uptake data were normalized to protein content to account for variation in the number of seeded sells. Transporter-mediated net uptake was calculated by subtracting uptake into empty vector-transfected control cells from uptake into transporter-transfected cells. Kinetic parameters were then determined after non-linear regression following the Michaelis–Menten equation (v = vmax × [S]/(Km + [S])) using GraphPad Prism (Version 5.01 for Windows, GraphPad Software, La Jolla, CA, USA). Vmax refers to the maximum transport velocity and Km is defined as the substance concentration required to reach half of vmax. The intrinsic clearance Clint was calculated as the quotient of vmax over Km.
(§6) HEK293 cells stably overexpressing wild-type or mutant OCT2 were incubated with 100 μM racemic substance for two minutes.
The target in another data set is T3, OCT3 (Homo sapiens, UniProt O75751).
T3 sequence (O75751 1-556): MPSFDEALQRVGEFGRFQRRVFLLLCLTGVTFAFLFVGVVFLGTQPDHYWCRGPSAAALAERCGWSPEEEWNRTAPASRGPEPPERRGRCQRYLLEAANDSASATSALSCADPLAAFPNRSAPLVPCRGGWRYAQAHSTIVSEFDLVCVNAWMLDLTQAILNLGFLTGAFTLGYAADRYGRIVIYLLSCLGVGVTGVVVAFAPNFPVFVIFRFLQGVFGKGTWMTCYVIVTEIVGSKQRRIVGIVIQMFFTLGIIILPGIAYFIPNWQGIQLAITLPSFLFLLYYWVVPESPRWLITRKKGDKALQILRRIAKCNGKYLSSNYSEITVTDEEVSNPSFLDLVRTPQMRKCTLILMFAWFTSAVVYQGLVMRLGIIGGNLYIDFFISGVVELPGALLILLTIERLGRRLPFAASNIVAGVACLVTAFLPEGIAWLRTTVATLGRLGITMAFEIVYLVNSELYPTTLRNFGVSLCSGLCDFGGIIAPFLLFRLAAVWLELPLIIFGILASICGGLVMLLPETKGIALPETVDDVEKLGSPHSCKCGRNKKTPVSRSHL
Nature of the data set: Stereoselective uptake into OCT3-overexpressing HEK293 cells. To be noted: for Saturable net uptake: result in words.

Another data set concerns the target T4, OCT2 (wild-type) (Homo sapiens, UniProt O15244).
T4 sequence (O15244 1-555 S270A): T1 sequence (O15244 1-555 S270A)
Nature of the data set: Stereoselective uptake into OCT2 (wild-type)-overexpressing HEK293 cells. The note with it: human, Stereoselectivity OCT2_WT, 100 μM racemic substance, two minutes; uptake ratio of enantiomers, given as for (R).

The subject of data set [2] is OCT2 A270S variant. In words: in vitro. To be noted: human, Stereoselectivity OCT2_A270S, 100 μM racemic substance, two minutes, uptake ratio of enantiomers.
Procedure: as §1, §2, §3, §4, §5, §6
The test system of data set [3] is OCT2 A270S variant. In words: Stereoselective uptake into OCT2 A270S variant-overexpressing HEK293 cells. The note with it: OCT2 wild-type versus A270S, 100 μM racemic substance, two minutes; given as for WT.
Procedure: as §1, §2, §3, §4, §5, §6
Where [4] appears, read: NET, ratio between enantiomers, given as for (S) or for 2.

Chain of SERT (P31645 whole entry): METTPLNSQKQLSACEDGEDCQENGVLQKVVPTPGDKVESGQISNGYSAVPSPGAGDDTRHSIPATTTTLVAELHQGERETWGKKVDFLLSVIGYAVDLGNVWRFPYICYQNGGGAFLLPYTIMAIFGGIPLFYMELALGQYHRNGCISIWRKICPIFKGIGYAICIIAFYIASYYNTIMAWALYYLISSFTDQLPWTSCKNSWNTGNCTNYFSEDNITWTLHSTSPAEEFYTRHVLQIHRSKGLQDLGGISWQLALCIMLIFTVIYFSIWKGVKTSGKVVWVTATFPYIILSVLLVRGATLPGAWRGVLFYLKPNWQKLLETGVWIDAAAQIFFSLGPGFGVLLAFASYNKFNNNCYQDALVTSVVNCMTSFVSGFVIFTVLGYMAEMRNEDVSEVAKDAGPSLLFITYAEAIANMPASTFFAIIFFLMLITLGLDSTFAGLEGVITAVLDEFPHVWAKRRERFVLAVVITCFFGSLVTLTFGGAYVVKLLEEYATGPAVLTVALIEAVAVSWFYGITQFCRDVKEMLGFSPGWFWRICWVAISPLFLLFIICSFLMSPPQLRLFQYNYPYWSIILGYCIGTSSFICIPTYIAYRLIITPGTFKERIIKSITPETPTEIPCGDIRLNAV
Chain of NET (P23975 whole entry): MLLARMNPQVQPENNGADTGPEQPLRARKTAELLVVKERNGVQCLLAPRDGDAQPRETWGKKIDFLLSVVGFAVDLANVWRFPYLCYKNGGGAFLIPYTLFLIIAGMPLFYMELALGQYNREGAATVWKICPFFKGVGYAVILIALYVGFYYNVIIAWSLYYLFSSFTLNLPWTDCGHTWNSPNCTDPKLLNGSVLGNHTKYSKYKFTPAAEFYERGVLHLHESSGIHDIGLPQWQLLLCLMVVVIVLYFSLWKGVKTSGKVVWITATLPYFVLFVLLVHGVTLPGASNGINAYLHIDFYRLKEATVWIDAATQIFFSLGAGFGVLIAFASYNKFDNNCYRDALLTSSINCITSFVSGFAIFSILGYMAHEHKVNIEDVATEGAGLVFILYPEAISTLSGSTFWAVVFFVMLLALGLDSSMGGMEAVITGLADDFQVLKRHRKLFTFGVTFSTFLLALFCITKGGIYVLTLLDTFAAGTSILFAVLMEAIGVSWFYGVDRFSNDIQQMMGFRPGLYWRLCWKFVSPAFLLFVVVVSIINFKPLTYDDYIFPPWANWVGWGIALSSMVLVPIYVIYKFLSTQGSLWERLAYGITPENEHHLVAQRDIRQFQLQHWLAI
Procedure for OCT3: as §1, §2
Intracellularly accumulated test substances were quantified by HPLC-MS/MS analysis using a Shimadzu Nexera HPLC system with a SIL-30AC autosampler, a CTO-20AC column oven, a LC-30AD pump, and a CBM-20A controller (Shimadzu, Kyoto, Japan). Stereoselective chromatography was carried out on a [sequence] CBH HPLC column (100 × 3 mm inner dimension with 5 μM particle size; Sigma-Aldrich, Darmstadt, Germany) with a corresponding 10 × 3 mm guard column. Reversed phased chromatography was carried out using an ammonium acetate (NH4Ac) buffered aqueous mobile phase with isopropyl alcohol (IPA) as organic solvent. […] The order of elution of the enantiomers was obtained from available reference literature [43] or by applying enantiopure reference compounds to the chiral HPLC. […] Given the structural similarity of the investigated substances and the fact that separation was performed on the same column with almost identical mobile phases, we assume that this order of elution for our compound set is always the (R)- before the (S)-enantiomer.
as §4, §5
Procedure for SERT: as §1, §2
Intracellularly accumulated test substances were quantified by HPLC-MS/MS analysis using a Shimadzu Nexera HPLC system with a SIL-30AC autosampler, a CTO-20AC column oven, a LC-30AD pump, and a CBM-20A controller (Shimadzu, Kyoto, Japan). […] CBH HPLC column (100 × 3 mm inner dimension with 5 μM particle size; Sigma-Aldrich, Darmstadt, Germany) with a corresponding 10 × 3 mm guard column. Reversed phased chromatography was carried out using an ammonium acetate (NH4Ac) buffered aqueous mobile phase with isopropyl alcohol (IPA) as organic solvent. […] The order of elution of the enantiomers was obtained from available reference literature [43] or by applying enantiopure reference compounds to the chiral HPLC.
as §4
All uptake data were normalized to protein content to account for variation in the number of seeded sells. Transporter-mediated net uptake was calculated by subtracting uptake into empty vector-transfected control cells from uptake into transporter-transfected cells. […] Vmax refers to the maximum transport velocity and Km is defined as the substance concentration required to reach half of vmax. The intrinsic clearance Clint was calculated as the quotient of vmax over Km.

Regarding `CNCC(O)c1ccccc1` (centres unmarked) [Halostachine-2, Halostachine], the Saturable net uptake entry at NET (NET), on OCT1 (OCT1), at DAT (DAT), on SERT and at OCT3 (OCT3) was “No saturable net uptake” each time. On OCT2, the “Clint ± SEM” value was 13.6 mL × g Protein^−1 × min^−1. Also, the selectivity ratio at 2 min, 100 μM in data set [1] (given as for A270S) is 1.05.

Consider `COc1cc(C(O)CN)ccc1O` (centres unmarked) [Normetanephrine], for which the selectivity ratio at 2 min, 100 μM is 1.91 on OCT2 (wild-type) and 1.7 in the data set with OCT2 A270S variant [2] (given as for (R)).

Regarding `CNCC(O)c1ccccc1` (centres unmarked) [Halostachine-1, Halostachine], the Saturable net uptake entry at NET (NET), on OCT1 (OCT1), at DAT (DAT), on SERT and at OCT3 (OCT3) was “No saturable net uptake” in each case. The “Clint ± SEM” value at OCT2 is reported as 25.7 mL × g Protein^−1 × min^−1. The selectivity ratio at 2 min came to 1.89 at OCT2 (Stereoselectivity ClInt, given as for (R) or for 1); 1.5 at OCT2 (Stereoselectivity Km, given as for (S) or for 2 (second-eluting)); 1.26 on OCT2 (Stereoselectivity Vmax, given as for (R) or for 1). Besides, the selectivity ratio at 2 min, 100 μM in data set [1] (given as for WT) turned out to be 1.02.

On to `CNCC(O)c1ccccc1` (centres unmarked) [Halostachine], for which the selectivity ratio at 2 min, 100 μM was 1.42 at OCT2 (wild-type) and 1.32 in the data set with OCT2 A270S variant [2] (given as for (R)).

Turning to `NCC(O)c1ccccc1` (centres unmarked) [Bisnorephedrine], the selectivity ratio at 2 min, 100 μM was 1.1 on OCT2 (wild-type) and 1.09 with OCT2 A270S variant [2] (given as for (S)).

Consider `NC[C@@H](O)c1ccccc1` [(S)-Bisnorephedrine], for which the “Vmax ± SEM” value is listed as 11.7 pmol × mg Protein^−1 × min^−1 on NET (HEK293 cells overexpressing human NET, racemic substrate, two minutes, net uptake); 602 pmol × mg Protein^−1 × min^−1 on OCT2 (HEK293 cells overexpressing human OCT2, racemic substrate, two minutes, net uptake); 184 pmol × mg Protein^−1 × min^−1 on OCT1 (HEK293 cells overexpressing human OCT1, racemic substrate, two minutes, net uptake); 31.7 pmol × mg Protein^−1 × min^−1 at DAT (HEK293 cells overexpressing human DAT, racemic substrate, two minutes, net uptake); 589 pmol × mg Protein^−1 × min^−1 on OCT3 (HEK293 cells overexpressing human OCT3, racemic substrate, two minutes, net uptake). Besides, the “Clint ± SEM” value at NET (NET, quotient of vmax over Km) is 57.4 mL × g Protein^−1 × min^−1; on OCT2, 10.0 mL × g Protein^−1 × min^−1; at OCT1 (OCT1, quotient of vmax over Km), 1.13 mL × g Protein^−1 × min^−1; on DAT (DAT, quotient of vmax over Km), 6.15 mL × g Protein^−1 × min^−1; at OCT3 (OCT3, quotient of vmax over Km) it was 3.85 mL × g Protein^−1 × min^−1. Moreover, the “Stereoselectivity Km” value on NET (NET, ratio between enantiomers, given as for (R) or for 1 (first-eluting)) is listed as 1.01 fold; at OCT1 (OCT1, ratio between enantiomers, given as for (R) or for 1 (first-eluting)) it was 1.15 fold; at DAT (DAT, ratio between enantiomers, given as for (S) or for 2 (second-eluting)), 1.18 fold; at OCT3 (OCT3, ratio between enantiomers, given as for (R) or for 1 (first-eluting)), 1.08 fold. Moreover, the “Stereoselectivity ClInt” value is listed as 1.24 fold on NET (setting [4]); 1.03 fold on OCT1 (OCT1, ratio between enantiomers, given as for (R) or for 1 (also 1.00-fold for 1/2)); 1.01 fold at DAT (DAT, ratio between enantiomers, printed as for (R) or for 1 (also 1.00-fold for (R/S))); 1.04 fold on OCT3 (OCT3, ratio between enantiomers, given as for (R) or for 1 (also 1.00-fold for 1/2)). Moreover, the “Stereoselectivity Vmax” value is 1.23 fold on NET (setting [4]); 1.19 fold at OCT1 (OCT1, ratio between enantiomers, given as for (R) or for 1); 1.17 fold on DAT (DAT, ratio between enantiomers, given as for (S) or for 2); 1.13 fold on OCT3 (OCT3, ratio between enantiomers, given as for (R) or for 1). Also, the Km is 0.204 µM at NET (read-out: Km ± SEM, HEK293 cells overexpressing human NET, racemic substrate, two minutes, net uptake minus empty vector control); 162 µM at OCT1 (read-out: Km ± SEM, HEK293 cells overexpressing human OCT1, racemic substrate, two minutes, net uptake minus empty vector control); 5.16 µM on DAT (read-out: Km ± SEM, HEK293 cells overexpressing human DAT, racemic substrate, two minutes, net uptake minus empty vector control); 153 µM at OCT3 (read-out: Km ± SEM, HEK293 cells overexpressing human OCT3, racemic substrate, two minutes, net uptake minus empty vector control). Further, in the data set with OCT2 A270S variant [3], the Transporter selectivity turned out to be 1.24 fold. The Saturable net uptake entry on SERT is “No saturable net uptake”.

For `CNCC(O)c1ccc(O)c(OC)c1` (centres unmarked) [Metanephrine], the selectivity ratio at 2 min, 100 μM at OCT2 (wild-type) was 2.78; in the data set on OCT2 A270S variant [2] (given as for (R)), 2.26.
